Measured values from US6320024A, “Method for design of substances that enhance memory and improve the quality of life” (priority 1999, dated 2001).
Ends that are not written are not given here. Peptide text beside a SMILES is read from it.

Assays:
[1] = tested on: CD-1 male mice; test: Amnestic effect on retention of footshock active avoidance training (FAAT) in T-maze, well-trained mice, post-training ICV administration; type: in vivo; details: for amnestic effect on retention of FAAT: well-trained mice, post-training ICV, 6.14 nmol of peptide per mouse except dose-response curves, retention tested one week later; for molar amnestic efficacy / potency compared with another peptide: dose-response curves or FIG. 19
Experimental: (§1) After 1 week in the laboratory, CD-1 male mice obtained from Charles River Breeding Laboratories were caged individually 24-28 hours prior to training and remained singly housed until retention was tested one week later. Animal rooms were on a 12 hour light/dark cycle with lights going on at the hour of 0600. Median body weight was 35 g, with a range of 33-38 g. Mice were assigned randomly to groups of 15 in the experiments reported in FIGS. 1-18 and groups of 10 for the dose-response curves (FIGS. 19 and 20) and were trained and tested between the hours of 0700 and 1500.
(§2) With the exception of Val Phe and Phe Val from Sigma, all peptides used in these studies were synthesized and analyzed to establish purity by standard methods at the Beckman Research Institute. Peptides were dissolved in: (1) saline; (2) 8% vol/vol dimethyl sulfoxide: (3) glacial acetic acid neutralized with […]; or (4) NaOH neutralized with HCl.
With exception of dose-response curves, the experiments reported below tested whether or not there was an amnestic: effect at 6.14 nmol of peptide per mouse.
The T-maze used for footshock active avoidance training (FAAT) consisted of a black plastic alley (46 cm long) with a start box at one end and two goal boxes (17.5 cm long) at the other. The start box was separated from the alley by a plastic guillotine door that prevented movement down the alley until training began. The alley was 12.5 cm deep and 9.8 cm wide. An electrifiable stainless steel rod floor ran throughout the maze.
Mice were not permitted to explore the maze before training. A block of training trials began when a mouse was placed in the start box. The guillotine door was raised and a muffled doorbell-type buzzer sounded simultaneously; footshock was 5 seconds later through a scrambled grid floor shocker (Colbourn Instruments, Model E13-08). The goal box first entered during the first set of trials was designated as "incorrect", and footshock was continued until the mouse entered the other goal box, which in all subsequent trials was designated "correct" for the particular mouse. At the end of each group of trials, the mouse was removed to its home cage.
As training proceeded, a mouse made one of two types of responses. A response latency longer than 5 seconds was classed as an escape from the footshock. A response latency less than or equal to 5 seconds was considered an avoidance, since the mouse avoided receiving a footshock. Two exclusion criteria were applied to reduce learning variability among mice, as follows. On the first training trials, mice with escape latencies greater than 20 seconds were discarded. Mice not having at least one errorless escape latency between 1.5 and 3.5 seconds on training trials 3 or 4 were excluded. […] Mice received five such training trials. One week after training and post-trial administration of vehicle alone or vehicle containing test substance, T-maze training was resumed until each mouse made five avoidance responses in six consecutive training trials (trials to criterion). The recall score was taken to be the percentage of tested mice remembering original training.
In these instances, training was performed under conditions that tend to maximize learning (sound intensity, 65 decibels; footshock current, 0.35 mA; intertrial interval, 45 seconds).

[2] = tested on: CD-1 male mice; test: Memory-enhancing effect on retention of FAAT in T-maze, weakly trained mice (poor retention in vehicle controls), post-training ICV administration; type: in vivo
Experimental: as §1
as §2, with “HCl. […] Analysis of variance showing insignificant differences among the latter, the value for the most frequently employed (No. 2 above) was used for comparison with groups receiving test peptides.” for “HCl.”
The T-maze used for footshock active avoidance training (FAAT) consisted of a black plastic alley (46 cm long) with a start box at one end and two goal boxes (17.5 cm long) at the other. […]

[3] = tested on: CD-1 male mice; details: cited from earlier work; for amnestic effect on retention of FAAT (literature): post-training ICV in mice, references 1 and 12
[4] = tested on: hippocampal neurons in culture; details: reference 17; cited from earlier work

NC(=O)CC[C@H](N)C(=O)N[C@@H](Cc1ccccc1)C(=O)N[C@@H](Cc1ccccc1)C(=O)NCC(=O)O [Gln Phe Phe Gly] (H-QFFG-OH)
amnestic effect on retention of FAAT [1]: amnestic | memory-enhancing potency compared with other peptides ([2]; poor retention in vehicle controls): by far the most potent

CC(C)[C@H](N)C(=O)N[C@@H](Cc1ccccc1)C(=O)N[C@@H](Cc1ccccc1)C(=O)O [Val Phe Phe] (H-Val-Phe-Phe-OH)
molar amnestic efficacy / potency compared with another peptide [1]: not significantly different from that of the β-A4 homologue | amnestic effect on retention of FAAT [1]: amnestic | memory-enhancing effect ([2]; weakly trained animals, ICV): memory enhancer

CC(C)[C@H](N)C(=O)N[C@@H](Cc1ccccc1)C(=O)N[C@H](C(=O)O)[C@@H](C)O [Val Phe Thr] (H-Val-Phe-Thr-OH)
amnestic effect on retention of FAAT [1]: amnestic

His Ser Asp Ala Val Phe Thr Asp Asn Tyr Thr Arg Leu Lys Gln Met Ala Val Lys Lys Tyr Leu Asn Ser Ile Leu Asn-NH2 (HSDAVFTDNYTRLKQMAVKKYLNSILN-NH2) [VIP]
amnestic effect on retention of FAAT (literature) [3]: amnestic

KLVFFAE [Lys Leu Val Phe Phe Ala Glu]
amnestic effect on retention of FAAT [1]: not amnestic

Pro Arg Pro Gly Pro Gln Gln Phe Phe Gly Leu Met-NH2 (PRPGPQQFFGLM-NH2) [Substance Pro]
effect on trophic and toxic effects of β-A4 [4]: counteract trophic and toxic effects of β-A4

VFFAE [Val Phe Phe Ala Glu]
molar amnestic efficacy / potency compared with another peptide [1]: lesser potency | amnestic effect on retention of FAAT [1]: amnestic

VFFAEDVGSNK [β-(18-28)]
amnestic effect on retention of FAAT (literature) [3]: amnestic

β-(1-18): β-A4 fragment of reference 1, probably misprint of β-(1-28)
amnestic activity at lower dose (literature) ([3]; 1.5 nmol per mouse, reference 1): active
